5 compounds from patent publication US20080076050A1, “P-Terphenyl Compound And Photosensitve Body For Electrophotography Using Such Compound” (Hodogaya Chemical Co., Ltd., priority 2004, published 2008) can be followed below.

Data set [1] can be described thus: Solubility in organic solvents. The format is physicochemical. Particulars: 25° C., amount of solute (g) based on 100 ml of solvent. The method, then: The solubility of Synthesis Examples 1 to 3 and Synthesis Comparative Example 1 in organic solvents (1,2-dichloroethane, toluene and tetrahydrofuran) at 25° C. was measured. The solubility was indicated by the amount of solute (g) based on 100 ml of solvent.

The nature of data set [2]: Dissolving the charge transporting agent in dichloroethane solution of polycarbonate resin for the charge transporting layer. Particulars: 8.0% dichloroethane solution of polycarbonate resin (Iupilon Z). The format is physicochemical. How it is done: On the other hand, 1.5 parts of the p-terphenyl compound (compound No. 1) synthesized in Synthesis Example 1 was added as a charge transporting agent to 18.75 parts of a 8.0% dichloroethane solution of a polycarbonate resin (Iupilon Z, manufactured by Mitsubishi Engineering-Plastics Corporation), followed by application of an ultrasonic wave to completely dissolve the p-terphenyl compound. This solution was applied onto the above-mentioned charge generating layer with a wire bar, and dried at 110° C. under normal pressure for 30 minutes to form a charge transporting layer having a film thickness of 20 μm, thus preparing photoconductor No. 1.
Photoconductor No. 7 was prepared in the same manner as in Photoconductor Example 1 with the exception that the charge transporting agent used in Photoconductor Example 1 was changed to the same amount of the p-terphenyl compound (comparative compound No. 1) synthesized in Synthesis Comparative Example 1.
On the other hand, 0.9 part of the p-terphenyl compound (compound No. 1) synthesized in Synthesis Example 1 was added as a charge transporting agent to 11.25 parts of a 8.0% dichloroethane solution of a polycarbonate resin (Iupilon Z, manufactured by Mitsubishi Engineering-Plastics Corporation), followed by application of an ultrasonic wave to completely dissolve the p-terphenyl compound. […]

Regarding `Cc1ccc(N(c2ccc(-c3ccc(-c4ccc(N(c5ccc(C)cc5)c5ccc6c(c5)CCC6)cc4)cc3)cc2)c2ccc3c(c2)CCC3)cc1` [Compound No. 1, N,N′-bisindane-5-yl-N,N′-di-p-tolyl-4,4″-diamino-p-terphenyl], the melting point lay in the range of 207.4 to 208.1 °C. Moreover, in data set [1], the “Solubility in 1,2-Dichloroethane” value amounted to 4.2 g/100 ml, the “Solubility in Tetrahydrofuran” value turned out to be 20.8 g/100 ml and the “Solubility in Toluene” value came to 11.0 g/100 ml.

In turn, `Cc1ccc(N(c2ccc(C)cc2)c2ccc(-c3ccc(-c4ccc(N(c5ccc(C)cc5)c5ccc(C)cc5)cc4)cc3)cc2)cc1` [Comparative Compound 1, N,N,N′,N′-tetra-p-tolyl-4,4″-diamino-p-terphenyl] yielded a melting point of 232.5 to 233.5 °C. In addition, the “Solubility of charge transporting agent when preparing the photoconductor” value in data set [2] is “insoluble”. In data set [1], the “Solubility in 1,2-Dichloroethane” value is 2.3 g/100 ml, the “Solubility in Tetrahydrofuran” value came out at 12.4 g/100 ml and the “Solubility in Toluene” value is 2.2 g/100 ml.

Regarding `COc1ccc(N(c2ccccc2)c2ccc(-c3ccc(-c4ccc(N(c5ccccc5)c5ccc(OC)cc5C)cc4)cc3)cc2)c(C)c1` [Compound No. 2, N,N′-di(4-methoxy-2-methylphenyl)-N,N′-diphenyl-4,4″-diamino-p-terphenyl], the melting point lay in the range of 180.8 to 183.4 °C. Also, in data set [1], the “Solubility in 1,2-Dichloroethane” value was found to be 3.5 g/100 ml, the “Solubility in Tetrahydrofuran” value is reported as 18.1 g/100 ml and the “Solubility in Toluene” value stood at 9.3 g/100 ml.

On to `COc1ccc(N(c2ccc(-c3ccccc3)cc2)c2ccc(-c3ccc(-c4ccc(N(c5ccc(-c6ccccc6)cc5)c5ccc(OC)cc5C)cc4)cc3)cc2)c(C)c1` [Compound No. 3, N,N′-bis-biphenyl-4-yl-N,N′-di-4-methoxy-2-methylphenyl-4,4″-diamino-p-terphenyl], for which the melting point was in the range of 232.6 to 233.2 °C. Further, in data set [1], the “Solubility in 1,2-Dichloroethane” value was 30.0 or more g/100 ml, the “Solubility in Tetrahydrofuran” value is recorded as 30.0 or more g/100 ml and the “Solubility in Toluene” value was 30.0 or more g/100 ml.

In turn, `Cc1ccc(N(c2ccccc2)c2ccc(-c3ccc(-c4ccc(N(c5ccccc5)c5ccc(C)cc5)cc4)cc3)cc2)cc1` [Compound No. 17, N,N′-diphenyl-N,N′-di-p-tolyl-4,4″-diamino-p-terphenyl] displayed a melting point of 167.2 to 168.2 °C.

For orientation: melting point means the temperature, or range, at which the solid turns liquid.
